In ChEMBL document CHEMBL1156264, “Synthesis and structure-activity relationships of dimeric peptide antagonists of the human immunoglobulin G-human neonatal Fc receptor (IgG-FcRn) interaction” (J Med Chem, 2010):
Numbered stars: 1 amine (or outer) side, 2 acyl side, 3 side chain; on linkers, the order of the positions; unused ones are H or OH. Bridge positions count the residues as written; N and C are the ends. Square brackets hold non-standard residues; d marks the D form. Peptide text beside a SMILES is read from it. I, II: the chains in the order shown. X3 = CN(CCCNC(=O)CCNC(=O)CCSCC(=O)[*:1])CCCNC(=O)CCNC(=O)CCSCC(=O)[*:2]; Phe(4-guanidino) = N=C(N)Nc1ccc(C[C@H](N)C(=O)O)cc1; X1 = O=C(C(=O)[*:2])[C@H](Cc1ccc(O)cc1)N[*:1]; NHCH2CH2N(Me)CH2CO = CN(CCN[*:1])CC(=O)[*:2]; NMeL = CN[C@@H](CC(C)C)C(=O)O; Pen = CC(C)(S)[C@H](N)C(=O)O; Suc = O=C(CCC(=O)[*:2])[*:1]; X2 = C(CN[*:1])NCCN[*:2]; Sar = CNCC(=O)O

Tests used:
[1] = biological target: T1, IgG receptor FcRn large subunit p51 (Homo sapiens, UniProt P55899); assay: Inhibition of IgG binding to soluble human FcRn after 2 hrs by competition ELISA
[2] = biological target: T1, IgG receptor FcRn large subunit p51; assay: Ratio of RF-Pen-TGHFG-Sar-NMeLeu-YPC IC50 to compound IC50 for soluble human FcRn

T1 sequence (P55899 whole entry): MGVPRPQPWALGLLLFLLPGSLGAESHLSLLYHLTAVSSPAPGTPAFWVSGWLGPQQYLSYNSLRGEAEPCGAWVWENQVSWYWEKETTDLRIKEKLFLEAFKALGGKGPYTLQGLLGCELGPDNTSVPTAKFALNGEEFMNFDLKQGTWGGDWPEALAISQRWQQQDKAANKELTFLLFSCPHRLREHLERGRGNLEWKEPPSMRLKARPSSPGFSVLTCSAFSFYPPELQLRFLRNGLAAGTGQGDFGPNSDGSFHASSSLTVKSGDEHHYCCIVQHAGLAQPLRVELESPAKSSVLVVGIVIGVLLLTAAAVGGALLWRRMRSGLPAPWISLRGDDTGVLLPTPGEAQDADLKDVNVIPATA

CC(C)C[C@H]1C(=O)N[C@@H](Cc2ccc(O)cc2)C(=O)C(=O)N2CCC[C@H]2C(=O)N[C@H](C(N)=O)CSSC(C)(C)[C@H](NC(=O)[C@H](Cc2ccccc2)NC(=O)[C@H](CCCNC(=N)N)NC(=O)CCC(=O)NCCN(C)CC(=O)N[C@@H](CCCNC(=N)N)C(=O)N[C@@H](Cc2ccccc2)C(=O)N[C@@H]2C(=O)N[C@@H]([C@@H](C)O)C(=O)NCC(=O)N[C@@H](Cc3cnc[nH]3)C(=O)N[C@@H](Cc3ccccc3)C(=O)N[C@H]3CCCN(CC(=O)N(C)[C@@H](CC(C)C)C(=O)N[C@@H](Cc4ccc(O)cc4)C(=O)C(=O)N4CCC[C@H]4C(=O)N[C@H](C(N)=O)CSSC2(C)C)C3=O)C(=O)N[C@@H]([C@@H](C)O)C(=O)NCC(=O)N[C@@H](Cc2cnc[nH]2)C(=O)N[C@@H](Cc2ccccc2)C(=O)N[C@H]2CCCN(CC(=O)N1C)C2=O
IC50 [1]: 3.9 nM

CC(C)C[C@@H]1NC(=O)CNC(=O)CNC(=O)[C@H](Cc2ccccc2)NC(=O)[C@H](Cc2cnc[nH]2)NC(=O)CNC(=O)[C@H]([C@@H](C)O)NC(=O)[C@@H](NC(=O)[C@H](Cc2ccccc2)NC(=O)[C@H](CCCNC(=N)N)NC(=O)CCC(=O)NCCN(C)CC(=O)N[C@@H](CCCNC(=N)N)C(=O)N[C@@H](Cc2ccccc2)C(=O)N[C@H]2CSSC[C@@H](C(N)=O)NC(=O)[C@@H]3CCCN3C(=O)C(=O)[C@H](Cc3ccc(O)cc3)NC(=O)[C@H](CC(C)C)NC(=O)CNC(=O)CNC(=O)[C@H](Cc3ccccc3)NC(=O)[C@H](Cc3cnc[nH]3)NC(=O)CNC(=O)[C@H]([C@@H](C)O)NC2=O)CSSC[C@@H](C(N)=O)NC(=O)[C@@H]2CCCN2C(=O)C(=O)[C@H](Cc2ccc(O)cc2)NC1=O
IC50 [1]: 3000 nM

CC(C)C[C@H]1C(=O)N[C@@H](Cc2ccc(O)cc2)C(=O)C(=O)N2CCC[C@H]2C(=O)N[C@H](C(N)=O)CSSC(C)(C)[C@H](NC(=O)[C@H](Cc2ccccc2)NC(=O)[C@H](CCCNC(=N)N)NC(=O)CCC(=O)N[C@@H](CCCNC(=N)N)C(=O)N[C@@H](Cc2ccccc2)C(=O)N[C@@H]2C(=O)N[C@@H]([C@@H](C)O)C(=O)NCC(=O)N[C@@H](Cc3cnc[nH]3)C(=O)N[C@@H](Cc3ccccc3)C(=O)NCC(=O)N(C)CC(=O)N(C)[C@@H](CC(C)C)C(=O)N[C@@H](Cc3ccc(O)cc3)C(=O)C(=O)N3CCC[C@H]3C(=O)N[C@H](C(N)=O)CSSC2(C)C)C(=O)N[C@@H]([C@@H](C)O)C(=O)NCC(=O)N[C@@H](Cc2cnc[nH]2)C(=O)N[C@@H](Cc2ccccc2)C(=O)NCC(=O)N(C)CC(=O)N1C
IC50 [1]: 2.4 nM

CC(C)C[C@H]1C(=O)N[C@@H](Cc2ccc(O)cc2)C(=O)C(=O)N2CCC[C@H]2C(=O)N[C@H](C(=O)NCC(=O)NCCNCCNC(=O)CNC(=O)[C@@H]2CSSC(C)(C)[C@H](NC(=O)[C@H](Cc3ccccc3)NC(=O)[C@@H](N)CCCNC(=N)N)C(=O)N[C@@H]([C@@H](C)O)C(=O)NCC(=O)N[C@@H](Cc3c[nH]cn3)C(=O)N[C@@H](Cc3ccccc3)C(=O)NCC(=O)N(C)CC(=O)N(C)[C@@H](CC(C)C)C(=O)N[C@@H](Cc3ccc(O)cc3)C(=O)C(=O)N3CCC[C@H]3C(=O)N2)CSSC(C)(C)[C@H](NC(=O)[C@H](Cc2ccccc2)NC(=O)[C@@H](N)CCCNC(=N)N)C(=O)N[C@@H]([C@@H](C)O)C(=O)NCC(=O)N[C@@H](Cc2c[nH]cn2)C(=O)N[C@@H](Cc2ccccc2)C(=O)NCC(=O)N(C)CC(=O)N1C (I: H-RF[Pen]TGHFG[Sar][NMeL][X1]PCG / II: H-RF[Pen]TGHFG[Sar][NMeL][X1]PCG; disulfide I:3-I:13, II:3-II:13; linker I:C-II:C via X2)
Ratio IC50 [2]: 120

CC(C)C[C@H]1C(=O)N[C@@H](Cc2ccc(O)cc2)C(=O)C(=O)N2CCC[C@H]2C(=O)N[C@H](C(N)=O)CSSC(C)(C)[C@H](NC(=O)[C@H](Cc2ccccc2)NC(=O)[C@H](CCCNC(=N)N)NC(=O)CCNC(=O)CCNC(=O)CCNC(=O)CN(C)CCNC(=O)CCC(=O)N[C@@H](CCCNC(=N)N)C(=O)N[C@@H](Cc2ccccc2)C(=O)N[C@@H]2C(=O)N[C@@H]([C@@H](C)O)C(=O)NCC(=O)N[C@@H](Cc3cnc[nH]3)C(=O)N[C@@H](Cc3ccccc3)C(=O)NCC(=O)N(C)CC(=O)N(C)[C@@H](CC(C)C)C(=O)N[C@@H](Cc3ccc(O)cc3)C(=O)C(=O)N3CCC[C@H]3C(=O)N[C@H](C(N)=O)CSSC2(C)C)C(=O)N[C@@H]([C@@H](C)O)C(=O)NCC(=O)N[C@@H](Cc2cnc[nH]2)C(=O)N[C@@H](Cc2ccccc2)C(=O)NCC(=O)N(C)CC(=O)N1C
IC50 [1]: 2.4 nM

CC(C)C[C@H]1C(=O)N[C@@H](Cc2ccc(O)cc2)C(=O)C(=O)N2CCC[C@H]2C(=O)N[C@H](C(N)=O)CSSC(C)(C)[C@H](NC(=O)[C@H](Cc2ccccc2)NC(=O)[C@H](CCCNC(=N)N)NC(=O)CN(C)CCNC(=O)CNC(=O)[C@@H]2CSSC(C)(C)[C@H](NC(=O)[C@H](Cc3ccccc3)NC(=O)[C@@H](N)CCCNC(=N)N)C(=O)N[C@@H]([C@@H](C)O)C(=O)NCC(=O)N[C@@H](Cc3cnc[nH]3)C(=O)N[C@@H](Cc3ccccc3)C(=O)NCC(=O)N(C)CC(=O)N(C)[C@@H](CC(C)C)C(=O)N[C@@H](Cc3ccc(O)cc3)C(=O)C(=O)N3CCC[C@H]3C(=O)N2)C(=O)N[C@@H]([C@@H](C)O)C(=O)NCC(=O)N[C@@H](Cc2cnc[nH]2)C(=O)N[C@@H](Cc2ccccc2)C(=O)NCC(=O)N(C)CC(=O)N1C (H-RF[Pen]TGHFG[Sar][NMeL][X1]PCG[NHCH2CH2N(Me)CH2CO]RF[Pen]TGHFG[Sar][NMeL][X1]PC-NH2; disulfide 3-13, 18-28)
IC50 [1]: 3.9 nM

CC(C)C[C@H]1C(=O)N[C@@H](Cc2ccc(O)cc2)C(=O)C(=O)N2CCC[C@H]2C(=O)N[C@H](C(N)=O)CSSC(C)(C)[C@H](NC(=O)[C@H](Cc2ccccc2)NC(=O)[C@H](CCCNC(=N)N)NC(=O)CC(C)(C)CC(=O)N[C@@H](CCCNC(=N)N)C(=O)N[C@@H](Cc2ccccc2)C(=O)N[C@@H]2C(=O)N[C@@H]([C@@H](C)O)C(=O)NCC(=O)N[C@@H](Cc3cnc[nH]3)C(=O)N[C@@H](Cc3ccccc3)C(=O)NCC(=O)N(C)CC(=O)N(C)[C@@H](CC(C)C)C(=O)N[C@@H](Cc3ccc(O)cc3)C(=O)C(=O)N3CCC[C@H]3C(=O)N[C@H](C(N)=O)CSSC2(C)C)C(=O)N[C@@H]([C@@H](C)O)C(=O)NCC(=O)N[C@@H](Cc2cnc[nH]2)C(=O)N[C@@H](Cc2ccccc2)C(=O)NCC(=O)N(C)CC(=O)N1C
IC50 [1]: 5 nM

CC(C)C[C@H]1C(=O)N[C@@H](Cc2ccc(O)cc2)C(=O)C(=O)N2CCC[C@H]2C(=O)N[C@H](C(=O)N[C@@H](CC(N)=O)C(=O)NCC(=O)N2CCC[C@H]2C(N)=O)CCCCNC(=O)C[C@H](NC(=O)[C@H](Cc2ccccc2)NC(=O)CSCCC(=O)NCCC(=O)NCCCN(C)CCCNC(=O)CCNC(=O)CCSCC(=O)N[C@@H](CCC(N)=O)C(=O)N[C@@H](CCCNC(=N)N)C(=O)N[C@@H](Cc2ccccc2)C(=O)N[C@H]2CC(=O)NCCCC[C@@H](C(=O)N[C@@H](CC(N)=O)C(=O)NCC(=O)N3CCC[C@H]3C(N)=O)NC(=O)[C@@H]3CCCN3C(=O)C(=O)[C@H](Cc3ccc(O)cc3)NC(=O)[C@H](CC(C)C)N(C)C(=O)CN(C)C(=O)CNC(=O)[C@H](Cc3ccccc3)NC(=O)[C@H](Cc3cnc[nH]3)NC(=O)CNC(=O)[C@H]([C@@H](C)O)NC2=O)C(=O)N[C@@H]([C@@H](C)O)C(=O)NCC(=O)N[C@@H](Cc2cnc[nH]2)C(=O)N[C@@H](Cc2ccccc2)C(=O)NCC(=O)N(C)CC(=O)N1C (I: QRFDTGHFG[Sar][NMeL][X1]PKNGP-NH2 / II: FDTGHFG[Sar][NMeL][X1]PKNGP-NH2; lactam I:4-I:14, II:2-II:12; linker I:N-II:N via X3)
IC50 [1]: 2400 nM

CC(C)C[C@H]1C(=O)N[C@@H](Cc2ccc(O)cc2)C(=O)C(=O)N2CCC[C@H]2C(=O)N[C@H](C(N)=O)CSSC(C)(C)[C@H](NC(=O)[C@H](Cc2ccccc2)NC(=O)[C@H](CCCNC(=N)N)NC(=O)CN(C)CC(=O)N[C@@H](CCCNC(=N)N)C(=O)N[C@@H](Cc2ccccc2)C(=O)N[C@@H]2C(=O)N[C@@H]([C@@H](C)O)C(=O)NCC(=O)N[C@@H](Cc3cnc[nH]3)C(=O)N[C@@H](Cc3ccccc3)C(=O)NCC(=O)N(C)CC(=O)N(C)[C@@H](CC(C)C)C(=O)N[C@@H](Cc3ccc(O)cc3)C(=O)C(=O)N3CCC[C@H]3C(=O)N[C@H](C(N)=O)CSSC2(C)C)C(=O)N[C@@H]([C@@H](C)O)C(=O)NCC(=O)N[C@@H](Cc2cnc[nH]2)C(=O)N[C@@H](Cc2ccccc2)C(=O)NCC(=O)N(C)CC(=O)N1C
IC50 [1]: 4.7 nM

CC(C)C[C@H]1C(=O)N[C@@H](Cc2ccc(O)cc2)C(=O)C(=O)N2CCC[C@H]2C(=O)N[C@H](C(N)=O)CSSC(C)(C)[C@H](NC(=O)[C@H](Cc2ccccc2)NC(=O)[C@H](CCCNC(=N)N)NC(=O)CCC(=O)N[C@@H](CCCNC(=N)N)C(=O)N[C@@H](Cc2ccccc2)C(=O)N[C@@H]2C(=O)N[C@@H]([C@@H](C)O)C(=O)NCC(=O)N[C@@H](Cc3ccc(N=C(N)N)cc3)C(=O)NCC(=O)N(C)CC(=O)N(C)[C@@H](CC(C)C)C(=O)N[C@@H](Cc3ccc(O)cc3)C(=O)C(=O)N3CCC[C@H]3C(=O)N[C@H](C(N)=O)CSSC2(C)C)C(=O)N[C@@H]([C@@H](C)O)C(=O)NCC(=O)N[C@@H](Cc2ccc(N=C(N)N)cc2)C(=O)NCC(=O)N(C)CC(=O)N1C (I: RF[Pen]TG[Phe(4-guanidino)]G[Sar][NMeL][X1]PC-NH2 / II: RF[Pen]TG[Phe(4-guanidino)]G[Sar][NMeL][X1]PC-NH2; disulfide I:3-I:12, II:3-II:12; linker I:N-II:N via Suc)
IC50 [1]: 20 nM

CC(C)C[C@H]1C(=O)N[C@@H](Cc2ccc(O)cc2)C(=O)C(=O)N2CCC[C@H]2C(=O)N[C@H](C(N)=O)CSSC(C)(C)[C@H](NC(=O)[C@H](Cc2ccccc2)NC(=O)[C@H](CCCNC(=N)N)NC(=O)CCOCCOCCOCCOCCOCCC(=O)N[C@@H](CCCNC(=N)N)C(=O)N[C@@H](Cc2ccccc2)C(=O)N[C@@H]2C(=O)N[C@@H]([C@@H](C)O)C(=O)NCC(=O)N[C@@H](Cc3cnc[nH]3)C(=O)N[C@@H](Cc3ccccc3)C(=O)NCC(=O)N(C)CC(=O)N(C)[C@@H](CC(C)C)C(=O)N[C@@H](Cc3ccc(O)cc3)C(=O)C(=O)N3CCC[C@H]3C(=O)N[C@H](C(N)=O)CSSC2(C)C)C(=O)N[C@@H]([C@@H](C)O)C(=O)NCC(=O)N[C@@H](Cc2cnc[nH]2)C(=O)N[C@@H](Cc2ccccc2)C(=O)NCC(=O)N(C)CC(=O)N1C
IC50 [1]: 4.8 nM
